# Assay results: publication PMC11968843, “Sulphostin-inspired N-phosphonopiperidones as selective covalent DPP8 and DPP9 inhibitors” (Nature Communications, 2025)
# Values joined by “and” are separate entries in the source; they are usually repeats but may differ in a detail not shown here. Equal values may be shown once. “Also recorded” adds a separate entry of the source.
# What was measured:
# [1] = system: HeLa wild-type cells; test: Cell viability assay (MTT), co-treatment with Mitomycin C; assay type: cell-based; settings: for cell viability normalized for each condition seperately to corresponsing [-MMC +inhibitor] control: +MMC co-treatment, individual replicate values (Supplementary Figure 11b); for effect on cell viability / sensitivity to MMC: HeLa wild-type, 1 µM MMC + 10 µM inhibitor, 72 h
# Procedure: (§1) HeLa wild-type (HeLa Flp-In T-REx WT, kind gift from Prof. Matthias Hentze) and HeLa DPP9^KO cells (prepared in-house) were cultured in DMEM (ThermoFisher, USA) supplemented with 10% FBS (PAN Biotech, Germany), 2 mM L-Glutamin (ThermoFisher, USA) and 1% Penicillin/Streptomycin (100 U mL^−1 Penicillin and 100 µg mL^−1 Streptomycin, ThermoFisher, USA). Cells were seeded in 96-well flat-bottom cell culture plates (Greiner, Germany) at a concentration of 5 × 10^3 cells per well (37 °C and 5% CO2). The indicated concentration of Mitomycin C (MMC, Merck) was added to the cells 24 h after seeding, together with 10 µM of the indicated inhibitor. The inhibitors were refreshed every 24 h. Control cells were treated with DMSO.
# (§2) Cell viability was measured 72 hours after the MMC treatment. For this, the medium was removed and replaced with phenol-red free DMEM (ThermoFisher, USA) containing 0.5 mg mL^−1 MTT (Sigma Aldrich, USA). Cells were incubated for 30 min at 37 °C, 5% CO2. Subsequently, the medium was removed and replaced by DMSO. The plates were shaken on an orbital shaker for 20 min before measuring the MTT signal on a CARIOstar Plus microplate reader (BMT labtech, Germany). Each experiment was performed three times, each in triplicates.
# [2] = system: HeLa wild-type cells; test: Cell viability assay (MTT), inhibitor alone; assay type: cell-based; settings: for Cell viability normalized to mock treated cells + 0 µM MMC: individual replicate values (Supplementary Figure 11a); for 95% confidence interval of difference: Figure 5d S11a, Ctrl. [-MMC] vs. compound [-MMC], Tukey's multiple comparisons test
# Procedure: as §1, §2
# [3] = target: T1, DPP9-BRCA2 interaction in HeLa wild-type cells (Homo sapiens, UniProt Q86TI2); test: Proximity ligation assay (PLA) of MMC-induced DPP9-BRCA2 interaction; assay type: cell-based; settings: for 95% confidence interval of difference: compound vs. +Ctrl., Unpaired two-sided t-test
# T1 construct: endogenous in cells; host or cells: HeLa wild-type (HeLa Flp-In T-REx WT)
# T1 sequence (Q86TI2 whole entry): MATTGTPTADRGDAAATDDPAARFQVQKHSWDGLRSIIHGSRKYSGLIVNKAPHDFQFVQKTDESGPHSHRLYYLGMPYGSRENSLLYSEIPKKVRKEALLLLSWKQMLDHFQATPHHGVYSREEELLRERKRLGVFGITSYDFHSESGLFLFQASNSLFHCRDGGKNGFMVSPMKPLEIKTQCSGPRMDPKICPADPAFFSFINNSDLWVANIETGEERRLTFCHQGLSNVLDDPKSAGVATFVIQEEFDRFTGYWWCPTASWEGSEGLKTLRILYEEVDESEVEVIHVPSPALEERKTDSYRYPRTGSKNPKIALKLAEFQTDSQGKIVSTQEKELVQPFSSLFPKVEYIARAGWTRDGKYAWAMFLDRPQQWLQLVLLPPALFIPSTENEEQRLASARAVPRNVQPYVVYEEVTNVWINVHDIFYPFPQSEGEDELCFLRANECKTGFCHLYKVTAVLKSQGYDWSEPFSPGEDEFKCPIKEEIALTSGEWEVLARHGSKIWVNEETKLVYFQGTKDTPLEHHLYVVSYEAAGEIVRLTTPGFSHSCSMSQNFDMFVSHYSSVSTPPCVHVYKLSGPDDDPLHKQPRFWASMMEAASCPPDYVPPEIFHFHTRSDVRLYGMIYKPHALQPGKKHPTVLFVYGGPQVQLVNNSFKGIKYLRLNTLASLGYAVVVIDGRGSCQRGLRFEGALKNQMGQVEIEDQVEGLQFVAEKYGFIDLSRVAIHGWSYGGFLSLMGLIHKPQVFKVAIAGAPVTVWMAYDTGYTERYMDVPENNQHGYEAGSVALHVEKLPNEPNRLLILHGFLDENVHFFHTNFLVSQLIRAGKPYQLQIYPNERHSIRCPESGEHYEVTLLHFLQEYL
# Procedure: HeLa wild-type cells were cultured as described above. Cells were seeded on coverslips in 24‐well plates (Greiner, Germany) at a concentration of 2 × 10^4 cells per well (37 °C and 5% CO2). To induce a DPP9-BRCA2 interaction, 300 nM MMC was added to the cells 8 h after seeding and for a total incubation time of 24 h. Indicated Inhibitors (10 µM) were added 1 h prior to cell fixation. Cells were fixed with 4% formaldehyde in PBS for 10 min and permeabilized with 0.2% Triton‐X‐100 in PBS for 5 min. The proximity ligation assay (PLA) was performed using the Duolink in situ PLA Kit (Sigma Aldrich, USA). Briefly, cells were washed with PBS and blocked with Duolink Blocking solution for 60 min at 37 °C. […] Antibody control coverslips were treated with only one primary antibody to estimate background staining in each experiment. Coverslips were washed and treated with PLA reagents according to the manufacturers protocol. Cells were mounted in DAKO with DAPI fluorescent mounting medium and analyzed using an LSM 710 confocal microscope, 63x NA 1.4 oil immersion objective (Zeiss, Germany). Images were processed using Zen black v2.3 (Zeiss, Germany) and subsequently analyzed using the Duolink ImageTool Setup 1.0.1.2 (Sigma Aldrich, USA).
# [4] = target: T2, DPP8 (Homo sapiens, UniProt Q6V1X1); test: biochemical; assay type: biochemical
# T2 construct: purchased Proteros Biostructures GmbH, Germany
# T2 sequence (Q6V1X1 whole entry): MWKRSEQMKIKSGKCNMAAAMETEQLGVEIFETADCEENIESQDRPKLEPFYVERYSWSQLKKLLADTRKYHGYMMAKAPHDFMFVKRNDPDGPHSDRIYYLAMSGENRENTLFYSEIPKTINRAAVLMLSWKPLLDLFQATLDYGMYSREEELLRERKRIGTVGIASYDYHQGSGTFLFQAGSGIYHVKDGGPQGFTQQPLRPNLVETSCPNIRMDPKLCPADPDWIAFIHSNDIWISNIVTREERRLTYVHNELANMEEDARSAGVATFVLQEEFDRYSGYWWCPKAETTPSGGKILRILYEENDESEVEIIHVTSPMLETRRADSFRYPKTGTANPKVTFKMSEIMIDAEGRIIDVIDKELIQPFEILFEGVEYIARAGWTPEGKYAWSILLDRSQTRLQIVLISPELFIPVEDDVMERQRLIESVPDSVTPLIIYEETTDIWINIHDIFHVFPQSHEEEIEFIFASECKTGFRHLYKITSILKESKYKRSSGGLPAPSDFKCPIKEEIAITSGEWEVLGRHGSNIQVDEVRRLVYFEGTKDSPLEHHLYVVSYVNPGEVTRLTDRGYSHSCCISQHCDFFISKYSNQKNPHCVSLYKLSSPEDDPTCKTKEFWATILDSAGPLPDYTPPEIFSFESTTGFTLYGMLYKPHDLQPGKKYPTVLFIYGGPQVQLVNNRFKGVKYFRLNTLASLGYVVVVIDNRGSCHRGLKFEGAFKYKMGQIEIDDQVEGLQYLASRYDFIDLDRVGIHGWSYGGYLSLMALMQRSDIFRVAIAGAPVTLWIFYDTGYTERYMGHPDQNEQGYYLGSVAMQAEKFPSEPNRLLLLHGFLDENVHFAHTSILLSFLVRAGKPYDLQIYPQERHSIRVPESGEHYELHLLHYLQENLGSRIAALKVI
# Procedure: (§3) Enzyme activity of DPP4, DPP8, DPP9 (Proteros Biostructures GmbH, Germany) and PREP (Sigma Aldrich, USA) was determined by measuring the initial velocity of AMC release from the fluorogenic substrate GP-AMC (Sigma Aldrich, USA) using a Tecan Spark® 10 M multimode microplate reader (Tecan Group Ltd., Switzerland) in activity buffer (20 mM HEPES/KOH pH 7.3, 110 mM potassium acetate, 2 mM Mg acetate, 0.5 mM EGTA, 0.02% Tween 20, supplemented with 1 mM DTT) and a final volume of 20 μL for maximal 60 min at 30 °C. Prior to activity measurement, 10 nM enzyme was incubated for 45 min at 30 °C and gentle shaking with the inhibitor compounds in concentrations ranging from 0 to 100 μM. The compounds were dissolved in DMSO and diluted in activity buffer (final DMSO concentration: 1%). […] IC50 values were calculated using Graph-Pad Prism v10.2.3 using the equation: [Inhibitor] vs. response—Variable slope (four parameters). All measurements were performed in triplicates and error bars represent standard errors of the fit.
# [5] = target: DPP9 (Homo sapiens, UniProt Q86TI2); test: biochemical; assay type: biochemical; parameters: purchased Proteros Biostructures GmbH, Germany
# Sequence of DPP9 (Q86TI2 whole entry): as the sequence (Q86TI2 whole entry) above
# Procedure: as §3
# [6] = Figure 5d S11a, + Ctrl. [+MMC] vs. compound [+MMC], Tukey's multiple comparisons test
# [7] = Figure S11b, Ctrl. vs. compound, Uncorrected Fisher's LSD
smiles,measurement,setting,value
"N[C@@H](CC(=O)N1CCN(C(c2ccc(F)cc2)c2ccc(F)cc2)CC1)C(=O)N1Cc2ccccc2C1 [1G244, reference compound]",cell viability normalized for each condition seperately to corresponsing [-MMC +inhibitor] control,[1],65.3963% and 56.5004% and 50.0376% and 54.1195% and 51.2842% and 44.9012% and 47.541% and 41.8131% and 48.7041%
same,95% confidence interval of difference,[1]; [6],"21,97 to 43,17"
same,95% confidence interval of difference,[1]; [7],"6,539 to 20,16"
same,effect on cell viability / sensitivity to MMC,[1],increases the sensitivity of; also recorded: significantly reduced cell viability
same,Cell viability normalized to mock treated cells + 0 µM MMC,[2],47.738% and 64.0147% and 69.6676% and 64.7998% and 59.8364% and 62.7117% and 63.5049% and 78.6659% and 67.3863%
same,95% confidence interval of difference,[2],"26,96 to 48,16"
same,effect on cell viability without MMC,"[2]; HeLa wild-type, 10 µM, 72 h",reduced cell viability
same,95% confidence interval of difference,[3]; Figure 5c,"-77,49 to -58,50"
same,95% confidence interval of difference,[3]; Figure S10a replicate 1,"-64,34 to -33,22"
same,95% confidence interval of difference,[3]; Figure S10a replicate 2,"-102,2 to -69,11"
same,95% confidence interval of difference,[3]; Figure S10a replicate 3,"-86,10 to -55,17"
same,effect on MMC-induced DPP9-BRCA2 PLA events,"[3]; HeLa wild-type, 300 nM MMC 24 h, 10 µM inhibitor",fewer MMC-induced PLA events
same,IC50,"[4]; GP-AMC 250 µM, 10 nM enzyme, 45 min pre-incubation at 30 °C, read-out: IC50 DPP8",4.4 ± 1.5 nM
same,DPP8 activity [%],[4]; c 1.6 nM,91.0893% and 98.7118% and 100.309%
same,DPP8 activity [%],[4]; c 3.1 nM,71.9188% and 85.2033% and 73.5988%
same,DPP8 activity [%],[4]; c 6.3 nM,45.4307% and 54.9695% and 54.3535%
same,DPP8 activity [%],[4]; c 25 nM,12.8362% and 14.9584% and 14.076%
same,DPP8 activity [%],[4]; c 50 nM,6.548% and 6.987% and 5.844%
same,DPP8 activity [%],[4]; c 100 nM,2.369% and 3.267% and 3.933%
same,IC50,"[5]; GP-AMC 250 µM, 10 nM enzyme, 45 min pre-incubation at 30 °C, read-out: IC50 DPP9",14 ± 2 nM
same,DPP9 activity [%],[5]; c 1.6 nM,98.3651% and 97.0319% and 99.1099%
same,DPP9 activity [%],[5]; c 3.1 nM,86.8432% and 92.2931% and 89.5294%
same,DPP9 activity [%],[5]; c 6.3 nM,74.2081% and 76.5022% and 75.3461%
same,DPP9 activity [%],[5]; c 25 nM,35.0531% and 41.6358% and 39.7574%
same,DPP9 activity [%],[5]; c 50 nM,22.1104% and 25.58% and 23.0144%
same,DPP9 activity [%],[5]; c 100 nM,13.084% and 15.2109% and 15.2279%
N[C@@H](CC(=O)N1CCn2c(nnc2C(F)(F)F)C1)Cc1cc(F)c(F)cc1F [Sitagliptin],cell viability normalized for each condition seperately to corresponsing [-MMC +inhibitor] control,[1],57.6636% and 68.4041% and 71.5915% and 62.1849% and 65.8665% and 55.7127% and 55.3675% and 52.3411% and 61.9483%
same,95% confidence interval of difference,[1]; [6],"-7,015 to 14,19"
same,95% confidence interval of difference,[1]; [7],"-3,548 to 10,07"
same,effect on cell viability / sensitivity to MMC,[1],no additional effect
same,Cell viability normalized to mock treated cells + 0 µM MMC,[2],87.835% (2×) and 113.478% (2×) and 105.575% (2×) and 118.346% (2×) and 103.264% (2×) and 91.1179% (2×) and 93.7454% (2×) and 87.0346% (2×) and 95.6216% (2×)
same,95% confidence interval of difference,[2],"-8,338 to 12,86"
